Consider 21 molecules from patent US4515793A, “Phenylpiperazines which are useful in the treatment of schistosomiasis” (Edna McConnell Clark Foundation, priority 1983, dated 1985).

Data set [1] concerns Salmonella Typhimurium TA100. Kind of data set: bacterial mutagenicity, strain TA100. Type of data set: cell-based. Also on record: key: +: Positive Response; -: Negative Response; w+: Weak Positive Response. As to the method: (§1) The tests were carried out as follows:
(§2) Four phenylpiperazine derivatives were selected and specially purified samples were prepared for testing as bacterial mutagens. The tests were conducted with five strains (TA98, TA100, TA1535, TA1537, and TA1538) of Salmonella Typhimurium. The compounds were the base of cpd. A (Table 6a), cpd. 28 (Table 2), cpd. 49 (Table 3), and cpd. 8 (Table 1). Hycanthone was used as a positive control drug. In the initial test, cpd. A base was nonmutagenic, confirming previous work using strains TA98 and TA100 with cpd. A. Cpd. 28 and cpd. […] In this initial test, cpd. […] Therefore, it was concluded that cpd. 49 is nonmutagenic in the Ames/Salmonella assay.

In a further data set the test system is Salmonella Typhimurium. As to the kind of experiment: bacterial mutagenicity (Ames/Salmonella), five strains together. Type of data set: cell-based. As to conditions: initial test, five strains. On the procedure:
as §1
Four phenylpiperazine derivatives were selected and specially purified samples were prepared for testing as bacterial mutagens. The tests were conducted with five strains (TA98, TA100, TA1535, TA1537, and TA1538) of Salmonella Typhimurium. The compounds were the base of cpd. A (Table 6a), cpd. 28 (Table 2), cpd. 49 (Table 3), and cpd. 8 (Table 1). Hycanthone was used as a positive control drug.

For data set [2], the system named is Salmonella Typhimurium TA1537. Kind of data set: bacterial mutagenicity, strain TA1537. Also on record: key: +: Positive Response; -: Negative Response; w+: Weak Positive Response. Type of data set: cell-based. On the procedure:
as §1, §2

The test system of data set [3] is Salmonella Typhimurium TA98. As to the kind of experiment: bacterial mutagenicity, strain TA98. The format is cell-based. Also on record: key to Mutagenicity TA98: +: Positive Response; -: Negative Response; w+: Weak Positive Response. On the procedure:
as §1, §2

The test system of data set [4] is Salmonella Typhimurium TA1535. As to the kind of experiment: bacterial mutagenicity, strain TA1535. The format is cell-based. Details: key: +: Positive Response; -: Negative Response; w+: Weak Positive Response. As to conditions: without metabolic activation. As to the method:
as §1, §2

In data set [5] the test system is Salmonella Typhimurium TA1538. As to the kind of experiment: bacterial mutagenicity, strain TA1538. Details: key: +: Positive Response; -: Negative Response; w+: Weak Positive Response. The format is cell-based. On the procedure: as §1, §2
The subject of data set [6] is S. mansoni. Kind of data set: antischistosomal activity in mice (live worm burden, single oral dose). The format is in vivo, S. mansoni (host: CD1 white female mice). As to conditions: Schistosoma mansoni, single oral dose, read-out: % Reduction Live Worm Burden; for inhibition in vivo at 40 mg/kg / inhibition in vivo at 125 mg/kg / inhibition in vivo at 20 mg/kg: mice. On the procedure: Tests were conducted to determine the antischistosomal activity in mice and monkeys. The results of the mice tests are reported in Tables 1 to 4 along with the chemical identifications of the compounds synthesized and tested.
The mice tests were conducted as follows:
A. Preinfection Procedures: Purina Laboratory chow (Ralston-Purina) and water were given ad libitum. All mice were housed in hanging stainless steel cages, without bedding, five per cage. They were kept in a ward with an ambient temperature of 75° F. and a relative humidity of 50-55%. Therapeutic treatment was given on Day 40 post-infection.
B. Experimental Procedures: CD1 white female mice were exposed by the tail immersion method for 30 minutes to 80 individually counted S. mansoni cercariae (WRAIR laboratory strain). The cercariae were obtained from pools of no less than 25 Biophalaria glabrata snails. Each experiment consisted of 118 mice divided into infected/water treated and infected/vehicle-treated controls, and infected/drug-treated groups (two dose levels) for six compounds. Groups of 12 mice each were treated with a compound synthesized and provided by the Warner-Lambert Company, Ann Arbor, Mich. at two dose levels. At the same time, five mice were sacrificed to establish worm burdens as infection controls. Three weeks after treatment, all remaining mice were sacrificed and perfused. Gross pathology (liver and intestines) was noted and graded (0 to +3). Worm burdens were determined and the sex of the worms recorded. Following perfusions the liver and intestines were removed and examined for the presence of […] or dead worms. […] Drugs were administered orally in Emulphor EL.
C. Drug Treatment: Treatment consisted of a single oral dose. Each drug was give initially at two dose levels, 40 mg/kg and 125 mg/kg, SID×1.
D. Criteria Used to Evaluate Therapeutic Effectiveness:
Evaluation of activity was determined by examination of the animals at 23 to 28 days after treatment. The schistosomes remaining alive after treatment were counted in the perfusates of the hepatic portal system and in press preparation of the livers. In the same preparations, the relative numbers of dead and/or encapsulated (i.e., worms may or may not be dead) parasites and the relative degree of pathology were ascertained. The efficacy of each treatment was that percentage of the control infection represented by the difference between numbers of parasites recovered from control (H2 O+vehicle) and treated animals. Thus, % efficacy is: [formula]

For data set [7], the system named is S. mansoni. Kind of data set: antischistosomal activity in Cebus apella monkeys treated orally. As to conditions: four equal doses over two days, oral; for Total Normal Worms at Necropsy: two values given, not assigned to the doses. The format is in vivo, S. mansoni (host: Cebus apella monkeys).
Where [8] appears, read: mice (footnote, 125 mg/kg column).

SMILES strings stand for the structures. Where “and” joins values, the source holds several entries; their conditions need not be identical. Identical values can stand only once.

Take `O=C(CN1CCN(c2ccc(CO)c(Cl)c2)CC1)c1ccc(Cl)c(Cl)c1Cl` [Cpd. 8, 2-[4-[3-Chloro-4-(hydroxymethyl)phenyl]-1-piperazinyl]-1-(2,3,4-trichlorophenyl)ethanone]: in data set [1] (with metabolic activation), the “Mutagenicity TA100” value is recorded as “+”. In the data set on Salmonella Typhimurium, the “bacterial mutagenicity” value is listed as “mutagenic, but much less so than hycanthone”. Besides, the “Mutagenicity TA1537” value is listed as “w+” in data set [2] (with metabolic activation) and “-” in data set [2] (without metabolic activation). Moreover, the “Mutagenicity TA98” value in data set [3] (with metabolic activation) and in data set [3] (without metabolic activation) was “-” each time. In data set [4], the “Mutagenicity TA1535” value is given as “-”. Also, the “Mutagenicity TA1538” value in data set [5] (with metabolic activation) and in data set [5] (without metabolic activation) was “-” in each case. Further, the inhibition in vivo at 40 mg/kg with S. mansoni [6] worked out at 84%. Also, the inhibition in vivo at 50 mg/kg in the data set with S. mansoni [6] (50 mg/kg, mice (footnote, 40 mg/kg)) came to 91%. Also, the inhibition in vivo at 156 mg/kg with S. mansoni [6] (156 mg/kg, mice (footnote, 125 mg/kg column)) is 96%.
Regarding `O=C(CCN1CCN(c2ccc(CO)c(Cl)c2)CC1)c1ccc(Cl)cc1` [drawing 32], the “% Reduction Live Worm Burden at Necropsy” value with S. mansoni [7] (100 mg/kg) is 93% and 87%; in the data set on S. mansoni [7] (200 mg/kg), 100% and 96%; with S. mansoni [7] (400 mg/kg), 97% and 95%. Besides, the “Total Live Worms at Necropsy” value in the data set on S. mansoni [7] (100 mg/kg) is 15 and 27; with S. mansoni [7] (400 mg/kg), 6 and 11. In addition, the “Total Normal Worms at Necropsy” value in the data set with S. mansoni [7] was determined as 0. In the data set with S. mansoni [7] (two values printed for six animals (400, 200, 100 mg/kg), not assigned), the “Fecal Egg Count” value is listed as 0.
On to `O=C(CN1CCN(c2ccc(CO)c(Cl)c2)CC1)c1ccc(Cl)c(Cl)c1Cl` [drawing 33], for which, in the data set with S. mansoni [7] (200 mg/kg), the “% Reduction Live Worm Burden at Necropsy” value was 85% and 83%; the “Fecal Egg Count” value turned out to be 0. Moreover, in the data set on S. mansoni [7] (400 mg/kg), the “% Reduction Live Worm Burden at Necropsy” value was 99% and 98%; the “Fecal Egg Count” value is listed as 0. In the data set with S. mansoni [7], the “Total Normal Worms at Necropsy” value came out at 0.
Consider `CCN(CC)CCNc1ccc(CO)c2sc3ccccc3c(=O)c12` [Hycanthone, reference compound], for which the “Mutagenicity TA100” value in data set [1] (with metabolic activation) and in data set [1] (without metabolic activation) was “+” throughout. In addition, the “Mutagenicity TA1537” value in data set [2] (with metabolic activation) and in data set [2] (without metabolic activation) was “+” each time. Also, the “Mutagenicity TA98” value in data set [3] (with metabolic activation) and in data set [3] (without metabolic activation) was “+” throughout. Besides, the “Mutagenicity TA1535” value in data set [4] was “-”. Besides, the “Mutagenicity TA1538” value in data set [5] (with metabolic activation) and in data set [5] (without metabolic activation) was “+” throughout.
Consider `O=C(CN1CCN(c2ccc(CO)c(Cl)c2)CC1)c1ccc(Br)s1` [compound 47], for which, in the data set on S. mansoni [6], the inhibition in vivo at 40 mg/kg was 35% and the inhibition in vivo at 125 mg/kg turned out to be 93%.
In the same order, the values of `O=C(CN1CCN(c2ccc(CO)c(Cl)c2)CC1)c1ccc2sc3ccccc3c2c1` [compound 56] are 51% and 77%.
On the same counts, the results for `O=C(CCN1CCN(c2ccc(CO)c(Cl)c2)CC1)c1ccc(C2CCCCC2)cc1` [compound 33] are 79% and 93%.
In the same order, the values of `Nc1cc(C(=O)CN2CCN(c3ccc(CO)c(Cl)c3)CC2)ccc1Cl` [compound 26] are -12% and 45%.
Consider `O=C(CN1CCN(c2ccc(CO)c(Cl)c2)CC1)c1ccc(I)cc1` [Cpd. 6], for which, in the data set on S. mansoni [6], the inhibition in vivo at 40 mg/kg stood at 62% and the inhibition in vivo at 125 mg/kg amounted to 83%.
In the same order, the values of `O=C(CN1CCN(c2ccc(CO)c(Cl)c2)CC1)c1ccc(C(=O)Oc2ccccc2)cc1` [compound 7] are -20% and 0%.
In the same order, the values of `O=C(CN1CCN(c2ccc(CO)c(Cl)c2)CC1)c1ccc(F)cc1` [Cpd. 2] are 19% and 61%.
In the same order, the values of `O=C(CN1CCN(c2ccc(CO)c(Cl)c2)CC1)c1cccs1` [compound 45] are 10% and 68%.
With `O=C(CN1CCN(c2ccc(CO)c(Cl)c2)CC1)c1ccc(Cl)cc1Cl` [Cpd. 3], in the data set with S. mansoni [6], the inhibition in vivo at 20 mg/kg turned out to be 62%, the inhibition in vivo at 40 mg/kg was 81% and the inhibition in vivo at 125 mg/kg stood at 94%.
With `Cc1csc(C(=O)CN2CCN(c3ccc(CO)c(Cl)c3)CC2)c1` [compound 52], in the data set with S. mansoni [6], the inhibition in vivo at 40 mg/kg came out at 25% and the inhibition in vivo at 125 mg/kg was 69%.
With `O=C(CN1CCN(c2ccc(CO)c(Cl)c2)CC1)c1cccc2ccccc12` [compound 24], in the data set with S. mansoni [6], the inhibition in vivo at 40 mg/kg worked out at 3% and the inhibition in vivo at 125 mg/kg was found to be 64%.
With `O=C(CCN1CCN(c2ccc(CO)c(Cl)c2)CC1)c1ccc(F)cc1F` [compound 40], in the data set with S. mansoni [6], the inhibition in vivo at 20 mg/kg came out at 71%, the inhibition in vivo at 40 mg/kg worked out at 86% and the inhibition in vivo at 125 mg/kg was determined as 99%.
For `O=C(CN1CCN(c2ccc(CO)c(Cl)c2)CC1)c1ccc(Cl)c([N+](=O)[O-])c1` [Cpd. 14], the inhibition in vivo at 40 mg/kg in the data set with S. mansoni [6] is 56%. Also, the inhibition in vivo at 160 mg/kg in the data set on S. mansoni [6] (setting [8]) worked out at 99%.
Regarding `O=C(CN1CCN(c2ccc(CO)c(Cl)c2)CC1)c1ccc([N+](=O)[O-])cc1` [Cpd. 5], in the data set with S. mansoni [6], the inhibition in vivo at 40 mg/kg was found to be 74% and the inhibition in vivo at 125 mg/kg amounted to 98%.
In the same order, the values of `O=C(CCCN1CCN(c2ccc(CO)c(Cl)c2)CC1)c1ccc(Cl)cc1` [Cpd. 59, 1-(4-Chlorophenyl)-4-[4-[3-chloro-4-(hydroxymethyl)phenyl]-1-piperazinyl]-1-butanone] are 30% and 68%.
Regarding `O=C(CCCN1CCN(c2ccc(CO)c(Cl)c2)CC1)c1cccs1` [Cpd. 58, 4-[4-[3-Chloro-4-(hydroxymethyl)phenyl]-1-piperazinyl]-1-(2-thienyl)-1-butanone], in the data set with S. mansoni [6], the inhibition in vivo at 40 mg/kg came to 20% and the inhibition in vivo at 125 mg/kg is 77%.
Take `COc1cc(C(=O)CN2CCN(c3ccc(CO)c(Cl)c3)CC2)cc(OC)c1OC` [compound 10]: in the data set with S. mansoni [6], the inhibition in vivo at 40 mg/kg was -23%. Further, the inhibition in vivo at 160 mg/kg in the data set on S. mansoni [6] (setting [8]) is 13%.
